Each structure is given as a SMILES string. Bounds are passed on as bounds.

The values below come from US6916832B2, “Chromeno[4,3,2-de]isoquinolines as potent dopamine receptor ligands” (University of North Carolina at Chapel Hill, priority 1999, dated 2005).

Assay [1] has as its target T1, D1 receptors (Rattus norvegicus, UniProt P18901).
T1 construct: Frozen rat striata was homogenized by seven manual strokes; from tissue; host or cells: rat striatum
The assay is described as follows: cAMP production in rat striatum homogenate. The assay is classed as biochemical. Conditions: rat striatum / rat striatal membranes, relative to dopamine. The method, then:
Frozen striatal tissue (ca. 40 mg) was homogenized in 4 ml of buffer (5 mM Hepes, 2 mM EGTA, pH 7.5) using 10 strokes in a Wheaton Teflon-glass homogenizer. Four ml of 50 mM Hepes with 2 mM EGTA buffer (pH 7.5) was added, and the tissue was homogenized by an additional 3 strokes. A 20 μl aliquot of this tissue homogenate was added to a prepared reaction. The reaction mixture consisted of 100 mM Hepes (pH 7.4), 100 mM NaCl, 4 mM MgCl2, 2 mM EDTA, 500 μM isobutyl methylxanthine (IBMX), 0.01% ascorbic acid, 10 μM pargyline, 2 mM ATP, 5 μM GTP, 20 mM phosphocreatine, 5 units of creatine phosphokinase (CPK), and selected concentrations of DA. The final reaction volume was 100 μl. Basal cAMP activity was determined by incubation of tissue in the reaction mixture with no drug added. Tubes were assayed in duplicate. After a 15 min incubation at 30° C., the reaction was stopped with the addition of 500 μl of 0.1 N HCl. Tubes were vortexed briefly, and then spun in a BHG Hermle Z 230 M microcentrifuge for five min at 15,000×g to eliminate large particles. The concentration of cAMP in each sample was determined with an RIA of acetylated cAMP, modified from that previously described (Harper and Brooker, 1975). Iodination of cAMP was performed using a method described previously (Patel and Linden, 1988). Assay buffer was 50 mM sodium acetate buffer with 0.1% sodium azide (pH 4.75). Standard curves of cAMP were prepared in buffer at concentrations of 2 to 500 fmoles/assay tube. To improve assay sensitivity, all samples and standards were acetylated with 10 μl of a 2:1 solution of triethylamine:acetic anhydride. Samples were assayed in duplicate. Each assay tube contained 100 μl of diluted sample, 100 μl of primary antibody (sheep, anti-cAMP, 1:100,000 dilution with 1% BSA in buffer) and 100 μl of [^125I]-cAMP (50,000 dpm/100 μl of buffer); total assay volume was 300 μl. Tubes were vortexed and stored at 4° C. overnight (approx. 18 hr). Antibody-bound radioactivity was then separated by the addition of 25 μL of BioMag rabbit, anti-goat IgG (Advanced Magnetics, Cambridge Mass.), followed by vortexing and further incubation at 4° C. for 1 hr. To these samples 1 ml of 12% polyethylene glycol/50 mM sodium acetate buffer (pH 6.75) was added and all tubes were centrifuged at 1700×g for 10 min. Supernatants were aspirated and radioactivity in the resulting pellet was determined using an LKB Wallac gamma counter (Gaithersburg, Md.). Data were calculated for each sample, and expressed initially as pmol/mg/min cAMP. […] Normalized dose-response curves were analyzed by nonlinear regression using an algorithm for sigmoid curves in the curvefitting program InPlot (Graphpad, Inc.; San Francisco, Calif.). […]
On the technique in general: Cyclic AMP is a second messenger, typically raised through Gs and lowered through Gi signalling.

The target of assay [2] is T2, D1 receptors (Macaca mulatta, UniProt O77680).
T2 construct: expressed in transfected cells; host or cells: C-6 glioma cells (C-6-mD1)
The assay is described as follows: cAMP production in C-6-mD1 cells (cloned expressed primate D1A receptors). In kind it is cell-based. Conditions: C-6-mD1 cells / cloned expressed primate D1A receptors, relative to dopamine. As for the experimental part:
Radioreceptor and function studies were also conducted for cloned human or monkey receptors transfected into one of several cell lines [e.g., C-6 glioma or Chinese hamster ovary (CHO) cells]. Cells were grown in appropriate medium, and at confluency, harvested for membrane preparation. Flasks of cells in the same passage were scraped using a rubber policeman and collected in 50 ml centrifuge tubes. These were spun for 10 min at 1200×g, to pellet whole cells. The supernatant was discarded and then five ml of PBS (phosphate buffered saline)/flask was added to the centrifuge tubes to resuspend the cells. The tubes were then centrifuged again for […] at 28,500×g. The PBS was removed and the pellet suspended in a solution of 10% DMSO in PBS. Cells were homogenized with a polytron for 10 seconds on setting 5. One ml aliquots were stored at −80° C. until use in receptor binding studies. Aliquots contained approximately 1 mg/ml of protein, as measured using the BCA protein assay reagent (Pierce, Rockford, Ill.). Agonist intrinsic activity was assessed by the ability of selected compounds to stimulate adenylate cyclase, as measured by cAMP formation in whole cells. In C-6 cells, for example, the dose response curve for each drug was fit using a sigmoid function to determine maximal effective concentration (top plateau of curve) as well as EC50s. All drugs were run in the same assay in order to decrease variability across cell passages. Confluent plates of cells were incubated with drugs dissolved in DMEM-H plain media supplemented with 20 mM Hepes, 0.01% ascorbic acid and 500 μM iso-butyl-methyl xanthine (IBMX; pH 7.2; media A). The final volume for each well was 500 μl. In addition to the dose response curves run for each drug, basal levels of cAMP and isoproterenol-stimulated (through endogenous β2 receptors, positive control) cAMP levels were evaluated for each plate. Each condition was run in duplicate wells. Following a 10 min incubation at 37° C., cells were rinsed briefly with media, and the reaction stopped with the addition of 500 μl 0.1 N HCl. Cells were then allowed to chill for 5-10 min at 4° C., the wells were scraped and the volume placed into 1.7 ml centrifuge tubes. An additional 1 ml of 0.1 N HCl was added to each tube, for a final volume of 1.5 ml/tube. Tubes were vortexed briefly, and then spun in a BHG Hermle Z 230 M microcentrifuge for five min at 15,000×g to eliminate large cellular particles. Cyclic AMP levels for each sample were determined as described above. Data were calculated for each sample, and expressed initially as pmol/mg/min cAMP. […] Normalized dose-response curves were analyzed by nonlinear regression using an algorithm for sigmoid curves in the curvefitting program InPlot (Graphpad, Inc.; San Francisco, Calif.). […]

For a further assay, the target named is D1 receptor (Homo sapiens, UniProt P21728). Conditions: preparations with decreased receptor reserve; cited from earlier work.
Assay [3] concerns MPTP-treated monkey model. The note with it: cited from earlier work.
The target of the next assay is T3, cloned human D4 receptor (Homo sapiens, UniProt P21917).
T3 construct: expressed in transfected cells; host or cells: not specified (e.g. C-6 glioma or CHO cells)
T3 sequence (P21917 1-419): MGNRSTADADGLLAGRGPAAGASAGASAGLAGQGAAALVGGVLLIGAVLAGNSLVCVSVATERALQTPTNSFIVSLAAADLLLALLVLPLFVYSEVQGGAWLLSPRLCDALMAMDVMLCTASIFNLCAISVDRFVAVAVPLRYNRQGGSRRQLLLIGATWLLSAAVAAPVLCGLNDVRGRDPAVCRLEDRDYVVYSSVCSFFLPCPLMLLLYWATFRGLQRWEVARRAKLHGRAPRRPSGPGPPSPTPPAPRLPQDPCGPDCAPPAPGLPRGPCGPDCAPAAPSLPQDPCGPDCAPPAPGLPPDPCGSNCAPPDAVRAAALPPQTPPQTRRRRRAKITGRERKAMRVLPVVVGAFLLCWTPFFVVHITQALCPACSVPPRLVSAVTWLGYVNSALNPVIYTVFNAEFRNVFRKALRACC
Nature of the assay: Radioreceptor binding, cloned human D4 receptor. Conditions: read-out: K0.5 at the cloned human D4 receptor.

In the next assay the test system is D1 and D2 receptors. Nature of the assay: D1:D2 selectivity from receptor binding. The method, then:
Frozen rat striata was homogenized by seven manual strokes in a Wheaton Teflon-glass homogenizer in 8 ml ice cold 50 mM HEPES buffer with 4.0 mM MgCl2, (pH 7.4). The tissue was centrifuged at 27,000×g for 10 min, the supernatant was discarded, and the pellet was homogenized (5 strokes) and resuspended in ice cold buffer and centrifuged again. The final pellet was suspended at a concentration of approximately 2.0 mg wet weight/ml. The amount of tissue added to each assay tube was 1.0 mg, in a final assay volume of 1.0 ml. D1 receptors were labeled with [^3H] SCH23390 (0.30 nM). D2 receptors were labeled with [^3H] spiperone (0.07 nM); unlabeled ketanserin (50 nM) was added to mask binding to 5HT2 sites. Total binding was defined as radioligand bound in the absence of any competing drug. Nonspecific binding was estimated by adding unlabeled SCH23390 (1 μM) or unlabeled chlorpromazine ([…]) for D1 and D2 receptor binding assays, respectively. Triplicate determinations were made for each drug concentration in each assay. Assay tubes were incubated at 37° C. for 15 minutes. Binding was terminated by filtering with ice cold buffer on a Skatron 12 well cell harvester (Skatron, Inc., Sterling, Va.) using glass fiber filter mats (Skatron no. 7034). […] After shaking for 30 minutes, radioactivity was determined on a LKB Wallac 1219 RackBeta liquid scintillation counter (Wallac, Gaithersburg, Md.). […]

The next assay relates to D2-like receptors. Nature of the assay: Functional selectivity at D2-like receptors in rats (in vivo or in vitro). Details: species or system rat.

T2 sequence (O77680 whole entry): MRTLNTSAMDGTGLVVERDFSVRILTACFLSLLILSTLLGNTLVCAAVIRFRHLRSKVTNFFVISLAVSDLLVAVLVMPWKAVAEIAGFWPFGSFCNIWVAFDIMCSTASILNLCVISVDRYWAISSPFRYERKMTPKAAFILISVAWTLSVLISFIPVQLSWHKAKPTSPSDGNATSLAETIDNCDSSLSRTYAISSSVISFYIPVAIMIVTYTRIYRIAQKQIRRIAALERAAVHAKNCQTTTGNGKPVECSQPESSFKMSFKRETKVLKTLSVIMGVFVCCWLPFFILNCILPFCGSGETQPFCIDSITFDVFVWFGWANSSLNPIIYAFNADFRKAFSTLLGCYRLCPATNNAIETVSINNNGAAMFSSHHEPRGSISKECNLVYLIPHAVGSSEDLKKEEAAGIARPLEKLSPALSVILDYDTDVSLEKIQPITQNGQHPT
T1 sequence (P18901 whole entry): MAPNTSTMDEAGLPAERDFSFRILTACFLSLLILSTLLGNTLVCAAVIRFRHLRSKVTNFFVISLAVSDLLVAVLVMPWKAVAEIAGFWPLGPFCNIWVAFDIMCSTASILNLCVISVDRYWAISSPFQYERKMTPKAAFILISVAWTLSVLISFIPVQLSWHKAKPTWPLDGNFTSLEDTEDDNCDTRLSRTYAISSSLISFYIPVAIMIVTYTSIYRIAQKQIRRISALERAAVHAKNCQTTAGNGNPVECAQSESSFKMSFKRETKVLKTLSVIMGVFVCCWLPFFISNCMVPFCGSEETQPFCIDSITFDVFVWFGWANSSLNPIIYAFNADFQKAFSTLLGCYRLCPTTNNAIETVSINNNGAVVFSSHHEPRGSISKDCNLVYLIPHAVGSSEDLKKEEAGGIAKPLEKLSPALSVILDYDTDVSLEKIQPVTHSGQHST
Chain of D1 receptor (P21728 whole entry): as the sequence (O77680 whole entry) above, with I311N counted along it
Method for cloned human D4 receptor: Cells were grown in appropriate medium, and at confluency, harvested for membrane preparation. Flasks of cells in the same passage were scraped using a rubber policeman and collected in 50 ml centrifuge tubes. These were spun for 10 min at 1200×g, to pellet whole cells. The supernatant was discarded and then five ml of PBS (phosphate buffered saline)/flask was added to the centrifuge tubes to resuspend the cells. The tubes were then centrifuged again for min at 28,500×g. The PBS was removed and the pellet suspended in a solution of 10% DMSO in PBS. Cells were homogenized with a polytron for 10 seconds on setting 5. One ml aliquots were stored at −80° C. until use in receptor binding studies. Aliquots contained approximately 1 mg/ml of protein, as measured using the BCA protein assay reagent (Pierce, Rockford, Ill.). […]

As to `Oc1cc2c(cc1O)C(c1ccccc1)CNCC2` (single isomer, unassigned; (+)) [(+)-SKF 38393, reference compound], the “agonist intrinsic activity at D1 receptors” value (“agonist intrinsic activity” for short) on D1 receptors [1] and at D1 receptors [2] was “partial agonist” in each case.

`C=CCN1CCc2c(cc(O)c(O)c2Cl)C(c2ccccc2)C1` (centres unmarked) [SKF82958]: the “intrinsic efficacy at D1 receptor” value on D1 receptor is “not to have full intrinsic efficacy”.

As for `NC[C@@H]1O[C@H](C23CC4CC(CC(C4)C2)C3)Cc2c1ccc(O)c2O` [Example A-77636], the antiparkinsonian effects result in assay [3] is “exceptional antiparkinsonian effects”.

In the case of `Oc1ccc2c(c1O)Cc1cccc3c1C2CNC3` (racemic) [dinapsoline, (±)-8,9-dihydroxy-2,3,7,11b-tetrahydro-1H-naphtho[1,2,3-de]isoquinoline, reference compound], the Ki on cloned human D4 receptor was greater than 1000 nM. Besides, in the assay on D1 and D2 receptors, the “D1:D2 selectivity” value was “five-fold”.

As to `Oc1cc2c(cc1O)[C@H]1c3ccccc3CN[C@@H]1CC2` (racemic) [dihydrexidine, (±)-trans-10,11-dihydroxy-5,6,6a,7,8,12b-hexahydrobenzo[a]phenanthridine], the “agonist intrinsic activity” value on D1 receptors [1] is on record as “full agonist”. At D1 receptors [2], the “agonist intrinsic activity” value is reported as “full agonist”. Also, in the assay on D2-like receptors, the “activity at D2-like receptors located post-synaptically” value was “agonist” and the “activity at D2-like receptors located pre-synaptically” value is on record as “antagonist”. In addition, in assay [3], the antiparkinsonian effects entry is “exceptional antiparkinsonian effects”.
